# Reference: patent publication US9884125B2, “Glucose-responsive insulin conjugates” (Merck Sharp & Dohme Corp., priority 2013, dated 2018)
# Target: T1, Human macrophage mannose receptor 1 (MRC1) (Homo sapiens, UniProt P22897)
# T1 sequence (P22897 19-1456): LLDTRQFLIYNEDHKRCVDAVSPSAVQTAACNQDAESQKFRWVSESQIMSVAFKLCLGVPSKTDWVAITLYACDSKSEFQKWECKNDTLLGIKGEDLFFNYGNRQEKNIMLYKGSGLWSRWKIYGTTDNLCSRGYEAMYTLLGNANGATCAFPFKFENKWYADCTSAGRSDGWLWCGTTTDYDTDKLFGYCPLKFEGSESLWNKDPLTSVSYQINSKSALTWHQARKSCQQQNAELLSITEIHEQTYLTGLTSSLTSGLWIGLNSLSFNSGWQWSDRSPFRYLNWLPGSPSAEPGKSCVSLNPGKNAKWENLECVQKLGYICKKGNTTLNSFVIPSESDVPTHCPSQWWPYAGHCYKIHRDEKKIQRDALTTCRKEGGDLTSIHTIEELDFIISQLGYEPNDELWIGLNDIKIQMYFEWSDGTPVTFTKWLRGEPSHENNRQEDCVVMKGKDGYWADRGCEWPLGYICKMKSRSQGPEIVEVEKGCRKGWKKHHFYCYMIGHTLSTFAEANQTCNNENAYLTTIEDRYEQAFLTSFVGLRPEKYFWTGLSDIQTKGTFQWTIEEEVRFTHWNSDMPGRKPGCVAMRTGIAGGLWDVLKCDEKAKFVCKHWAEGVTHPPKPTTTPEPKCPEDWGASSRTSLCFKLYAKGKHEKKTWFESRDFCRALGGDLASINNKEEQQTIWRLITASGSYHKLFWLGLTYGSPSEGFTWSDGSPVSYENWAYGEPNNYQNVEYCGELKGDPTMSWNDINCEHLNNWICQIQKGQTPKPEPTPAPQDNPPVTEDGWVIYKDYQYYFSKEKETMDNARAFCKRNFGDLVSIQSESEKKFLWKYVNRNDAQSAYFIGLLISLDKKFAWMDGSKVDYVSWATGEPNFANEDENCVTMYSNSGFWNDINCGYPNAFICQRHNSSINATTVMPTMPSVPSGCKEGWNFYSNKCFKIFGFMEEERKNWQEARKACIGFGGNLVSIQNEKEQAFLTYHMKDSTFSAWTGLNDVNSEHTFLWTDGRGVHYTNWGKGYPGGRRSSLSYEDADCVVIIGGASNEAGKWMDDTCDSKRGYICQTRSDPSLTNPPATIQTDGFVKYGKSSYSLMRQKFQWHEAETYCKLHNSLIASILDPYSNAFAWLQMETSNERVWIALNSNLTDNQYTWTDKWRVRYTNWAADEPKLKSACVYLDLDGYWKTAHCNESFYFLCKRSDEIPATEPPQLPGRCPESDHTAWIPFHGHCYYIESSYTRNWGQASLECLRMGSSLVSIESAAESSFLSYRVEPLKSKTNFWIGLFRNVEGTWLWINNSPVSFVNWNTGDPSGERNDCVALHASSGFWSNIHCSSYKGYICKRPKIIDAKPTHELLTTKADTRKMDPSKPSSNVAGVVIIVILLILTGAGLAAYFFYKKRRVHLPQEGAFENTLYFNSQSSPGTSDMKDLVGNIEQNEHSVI
# Assay: MRC1 competition binding assay (Eu-mannosylated-BSA), Method F: 96-well, manual liquid dispense
# Conditions: read-out: MRC1 Binding IP (inflection point, corresponds to IC50)
# Experimental: The competition binding assay for MRC1 utilized a ligand, mannosylated-BSA labeled with the DELFIA Eu-N1-ITC reagent, as reported in the literature. […] The antibody was incubated in the plate for 1 hr at room temperature with shaking. The plate was washed with wash buffer 3-5 times followed by addition of MRC1 (2 ng/μl final concentration) in 25 μl PBS containing 1% stabilizer BSA. The plate was incubated at room temperature with gentle shaking for 1 hr. The plate was washed three times with wash buffer. […]
# Their in vitro biological activities towards insulin receptor (IR) were measured by either ligand competition assays or functional phosphorylation assays, as described above, labeled as following: Method A: IR phosphorylation assay based on 96-well with manual liquid dispense; Method B: IR phosphorylation assay based on 96-well with automated liquid dispense; Method C: IR phosphorylation assay based on 384-well with automated liquid dispense; Method D: IR binding assay method D; Method E: IR binding assay method E; Method F: MRC1 assay was performed in a 96-well plate with a manual liquid dispense; Method G: MRC1 assay was performed in a 96-well plate with an automated liquid dispense; Method H: MRC1 assay was performed in a 384-well plate with an automated dispense.
row,Compound,IC50
1,CC[C@H](C)[C@H](NC(=O)CN)C(=O)N[C@H](C(=O)N[C@@H](CCC(=O)O)C(=O)N[C@@H](CCC(N)=O)C(=O)N[C@H]1CSSC[C@@H]2NC(=O)[C@H]([C@@H](C)CC)NC(=O)[C@H](CO)NC(=O)[C@H]([C@@H](C)O)NC(=O)[C@H](CSSC[C@H](NC(=O)[C@H](CC(C)C)NC(=O)[C@H](Cc3c[nH]cn3)NC(=O)[C@H](CCC(N)=O)NC(=O)[C@H](CC(N)=O)NC(=O)[C@@H](NC(=O)[C@@H](N)Cc3ccccc3)C(C)C)C(=O)NCC(=O)N[C@@H](CO)C(=O)N[C@@H](Cc3c[nH]cn3)C(=O)N[C@@H](CC(C)C)C(=O)N[C@@H](C(C)C)C(=O)N[C@@H](CCC(=O)O)C(=O)N[C@@H](C)C(=O)N[C@@H](CC(C)C)C(=O)N[C@@H](Cc3ccc(O)cc3)C(=O)N[C@@H](CC(C)C)C(=O)N[C@@H](C(C)C)C(=O)N[C@H](C(=O)NCC(=O)N[C@@H](CCC(=O)O)C(=O)N[C@@H](CCCNC(=N)N)C(=O)NCC(=O)N[C@@H](Cc3ccccc3)C(=O)N[C@@H](Cc3ccccc3)C(=O)N[C@@H](Cc3ccc(O)cc3)C(=O)N[C@H](C(=O)N3CCC[C@H]3C(=O)N[C@@H](CCCCNC(=O)CCCCC(=O)N(CC(=O)NCCO[C@@H]3O[C@@H](C)[C@@H](O)[C@@H](O)[C@@H]3O)CC(=O)NCCO[C@@H]3O[C@@H](C)[C@@H](O)[C@@H](O)[C@@H]3O)C(=O)N[C@H](C(=O)O)[C@@H](C)O)[C@@H](C)O)CSSC[C@@H](C(=O)N[C@@H](CC(N)=O)C(=O)O)NC(=O)[C@H](Cc3ccc(O)cc3)NC(=O)[C@H](CC(N)=O)NC(=O)[C@H](CCC(=O)O)NC(=O)[C@H](CC(C)C)NC(=O)[C@H](CCC(N)=O)NC(=O)[C@H](Cc3ccc(O)cc3)NC(=O)[C@H](CC(C)C)NC(=O)[C@H](CO)NC2=O)NC1=O)C(C)C [IOC-12],92.5 nM
2,CC[C@H](C)[C@H](NC(=O)CNC(=O)CCCCC(=O)N(CC(=O)NCCO[C@@H]1O[C@@H](C)[C@@H](O)[C@@H](O)[C@@H]1O)CC(=O)NCCO[C@@H]1O[C@@H](C)[C@@H](O)[C@@H](O)[C@@H]1O)C(=O)N[C@H](C(=O)N[C@@H](CCC(=O)O)C(=O)N[C@@H](CCC(N)=O)C(=O)N[C@H]1CSSC[C@@H]2NC(=O)[C@H]([C@@H](C)CC)NC(=O)[C@H](CO)NC(=O)[C@H]([C@@H](C)O)NC(=O)[C@H](CSSC[C@H](NC(=O)[C@H](CC(C)C)NC(=O)[C@H](Cc3c[nH]cn3)NC(=O)[C@H](CCC(N)=O)NC(=O)[C@H](CC(N)=O)NC(=O)[C@@H](NC(=O)[C@@H](N)Cc3ccccc3)C(C)C)C(=O)NCC(=O)N[C@@H](CO)C(=O)N[C@@H](Cc3c[nH]cn3)C(=O)N[C@@H](CC(C)C)C(=O)N[C@@H](C(C)C)C(=O)N[C@@H](CCC(=O)O)C(=O)N[C@@H](C)C(=O)N[C@@H](CC(C)C)C(=O)N[C@@H](Cc3ccc(O)cc3)C(=O)N[C@@H](CC(C)C)C(=O)N[C@@H](C(C)C)C(=O)N[C@H](C(=O)NCC(=O)N[C@@H](CCC(=O)O)C(=O)N[C@@H](CCCNC(=N)N)C(=O)NCC(=O)N[C@@H](Cc3ccccc3)C(=O)N[C@@H](Cc3ccccc3)C(=O)N[C@@H](Cc3ccc(O)cc3)C(=O)N[C@H](C(=O)N3CCC[C@H]3C(=O)N[C@@H](CCCCN)C(=O)N[C@H](C(=O)O)[C@@H](C)O)[C@@H](C)O)CSSC[C@@H](C(=O)N[C@@H](CC(N)=O)C(=O)O)NC(=O)[C@H](Cc3ccc(O)cc3)NC(=O)[C@H](CC(N)=O)NC(=O)[C@H](CCC(=O)O)NC(=O)[C@H](CC(C)C)NC(=O)[C@H](CCC(N)=O)NC(=O)[C@H](Cc3ccc(O)cc3)NC(=O)[C@H](CC(C)C)NC(=O)[C@H](CO)NC2=O)NC1=O)C(C)C [IOC-13],107 nM
